This note sets out measurements from ChEMBL document CHEMBL4739710, “Tetrahydropyridopyrazines as modulators of GPR6” (2020).

Molecules are shown by their SMILES.

The target in the assay is G-protein coupled receptor 6 (Homo sapiens, UniProt P46095). Briefly: Modulation of GPR6 (unknown origin) expressed in CHO-K1 cells assessed as inhibition of constitutive cAMP activity by HTRF assay. It counts as functional, cell-based.
Sequence of G-protein coupled receptor 6 (P46095 whole entry): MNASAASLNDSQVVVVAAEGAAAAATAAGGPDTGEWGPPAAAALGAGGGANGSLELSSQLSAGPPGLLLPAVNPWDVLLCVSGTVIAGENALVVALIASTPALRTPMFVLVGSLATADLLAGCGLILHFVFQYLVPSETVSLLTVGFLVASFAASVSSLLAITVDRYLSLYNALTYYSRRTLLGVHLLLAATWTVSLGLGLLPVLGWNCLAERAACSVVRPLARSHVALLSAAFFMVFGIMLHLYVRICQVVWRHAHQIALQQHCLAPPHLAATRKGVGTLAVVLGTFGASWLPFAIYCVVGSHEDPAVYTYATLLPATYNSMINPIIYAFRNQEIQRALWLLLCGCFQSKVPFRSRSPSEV

As a reminder, the EC50 is the concentration that produces a half-maximal response. `Cc1cc2nc(N[C@@H]3CCOC3)c(N3CCN(Cc4ccc(F)cc4F)CC3)nc2cn1`: the EC50 amounted to 47.9 nM.
